Legend:
Conditions in all cases: scale 0 to 100
LOLMU = test: greenhouse pre-emergence herbicidal activity, LOLMU; assay type: in vivo, Lolium multiflorum
Source text: (§1) The seeds of the test plants were sown separately for each species. For the pre-emergence treatment, the active compounds, suspended or emulsified in water, were applied 1 day after sowing by means of finely distributing nozzles. The containers were irrigated gently to promote germination and growth and subsequently covered with transparent plastic hoods until the plants had rooted. This cover caused uniform germination of the test plants unless this was adversely affected by the active compounds. Depending on the species, the plants were kept at 10-25° C. and 20-35° C., respectively. The test period extended over 2 to 4 weeks. During this time, the plants were tended and their response to the individual treatments was evaluated. Evaluation was carried out using a scale from 0 to 100. 100 means no emergence of the plants, or complete destruction of at least the above-ground parts, and 0 means no damage or normal course of growth. A good herbicidal activity is given at values of at least 70, and very good herbicidal activity is given at values of at least 85. […] 22ff., the value E, which is expected if the activity of the individual active compounds is only additive, was calculated. […] If the value found experimentally is higher than the value E calculated according to Colby, a synergistic effect is present.

STEME [1] = test: greenhouse pre-emergence herbicidal activity, STEME; assay type: in vivo, Stellaria media
Source text: (§2) The seeds of the test plants were sown separately for each species. For the pre-emergence treatment, the active compounds, suspended or emulsified in water, were applied 1 day after sowing by means of finely distributing nozzles. The containers were irrigated gently to promote germination and growth and subsequently covered with transparent plastic hoods until the plants had rooted. This cover caused uniform germination of the test plants unless this was adversely affected by the active compounds. Depending on the species, the plants were kept at 10-25° C. and 20-35° C., respectively. The test period extended over 2 to 4 weeks. During this time, the plants were tended and their response to the individual treatments was evaluated. Evaluation was carried out using a scale from 0 to 100. 100 means no emergence of the plants, or complete destruction of at least the above-ground parts, and 0 means no damage or normal course of growth. A good herbicidal activity is given at values of at least 70, and very good herbicidal activity is given at values of at least 85. Trifludimoxazin was formulated as a 500 g/I suspension concentrate, the compound of formula (I) was formulated as a 50 g/I emulsifiable concentrate and, with addition of the amount of solvent system, introduced into the spray liquor used for applying the active compound. In the examples, the solvent used was water. In the examples below, using the method of S. R. Colby (1967) “Calculating synergistic and antagonistic responses of herbicide combinations”, Weeds 15, p. 22ff., the value E, which is expected if the activity of the individual active compounds is only additive, was calculated. E=X+Y−(X·Y/100) • where • X=percent activity using active compound A at an application rate a; • Y=percent activity using active compound B at an application rate b; • E=expected activity (in %) by A+B at application rates a+b. If the value found experimentally is higher than the value E calculated according to Colby, a synergistic effect is present.

MATIN = test: greenhouse pre-emergence herbicidal activity, MATIN; assay type: in vivo, Matricaria inodora
Source text: as §1

GERDI = test: greenhouse pre-emergence herbicidal activity, GERDI; assay type: in vivo, Geranium dissecium
Source text: as §2

ALOMY = test: greenhouse pre-emergence herbicidal activity, ALOMY; assay type: in vivo, Alopercurus myosuroides
Source text: as §1

GALAP = test: greenhouse pre-emergence herbicidal activity, GALAP; assay type: in vivo, Galium aparine
Source text: as §1

STEME [2] = test: greenhouse post-emergence herbicidal activity, STEME; assay type: in vivo, Stellaria media
Description: (§3) The seeds of the test plants were sown separately for each species. For the post-emergence treatment, the test plants were grown to a plant height of from 3 to 15 cm, depending on the plant habit, and only then treated with the active compounds which had been suspended or emulsified in water. To this end, the test plants were either sown directly, and grown in the same containers, or they were first grown separately as seedlings and transplanted into the test containers one week prior to treatment. Depending on the species, the plants were kept at 10-25° C. and 20-35° C., respectively. The test period extended over 2 to 4 weeks. During this time, the plants were tended and their response to the individual treatments was evaluated. Evaluation was carried out using a scale from 0 to 100. 100 means no emergence of the plants, or complete destruction of at least the above-ground parts, and 0 means no damage or normal course of growth. A good herbicidal activity is given at values of at least 70, and very good herbicidal activity is given at values of at least 85. […] 22ff., the value E, which is expected if the activity of the individual active compounds is only additive, was calculated. […] If the value found experimentally is higher than the value E calculated according to Colby, a synergistic effect is present.

LAMPU = test: greenhouse pre-emergence herbicidal activity, LAMPU; assay type: in vivo, Lamium purpureum
Source text: as §1

POLCO = test: greenhouse pre-emergence herbicidal activity, POLCO; assay type: in vivo, Polygonum convolvulus
Source text: as §2

IPOHE = test: greenhouse post-emergence herbicidal activity, IPOHE; assay type: in vivo, Ipomoea hederacea
Description: as §3

AVEFA = test: greenhouse pre-emergence herbicidal activity, AVEFA; assay type: in vivo, Avena fatua
Source text: as §1

[3] = Example 7, trifludimoxazin 0.25 g/ha a.s. alone
[4] = Example 8, trifludimoxazin 0.25 g/ha a.s. alone
[5] = Example 2, trifludimoxazin 4.5 g/ha a.s. alone
[6] = Example 1, trifludimoxazin 9 g/ha a.s. alone
[7] = Example 3, trifludimoxazin 4.5 g/ha a.s. alone
[8] = Example 6, trifludimoxazin 0.5 g/ha a.s. alone
[9] = Example 7, compound (I) 15.63 g/ha a.s. alone
[10] = Example 8, compound (I) 7.81 g/ha a.s. alone
[11] = Example 2, compound (I) 62.5 g/ha a.s. alone
[12] = Example 1, compound (I) 15.625 g/ha a.s. alone
[13] = Example 3, compound (I) 31.25 g/ha a.s. alone
[14] = Example 6, compound (I) 15.63 g/ha a.s. alone

For C#CCN1C(=O)C(F)(F)Oc2cc(F)c(-n3c(=O)n(C)c(=S)n(C)c3=O)cc21 [trifludimoxazin, 1,5-dimethyl-6-thioxo-3-(2,2,7-trifluoro-3-oxo-4-(prop-2-ynyl)-3,4-dihydro-2H-benzo[b][1,4]oxazin-6-yl)-1,3,5-triazinane-2,4-dione], the “herbicidal activity against LOLMU found” value (LOLMU; Example 4, trifludimoxazin 9 g/ha a.s. alone) was 65%, the “herbicidal activity against STEME found” value (STEME [1]; [3]) was 80% and the “herbicidal activity against STEME found” value (STEME [1]; [4]) was 80%. The “herbicidal activity against MATIN found” value (MATIN; [5]) was 90%, the “herbicidal activity against GERDI found” value (GERDI; [6]) was 75% and the “herbicidal activity against GERDI found” value (GERDI; [7]) was 0%. For the same compound, the “herbicidal activity against GERDI found” value (GERDI; Example 5, trifludimoxazin 4.5 g/ha a.s. alone) was 0%, the “herbicidal activity against ALOMY found” value (ALOMY; [6]) was 60% and the “herbicidal activity against GALAP found” value (GALAP; Example 9, trifludimoxazin 2 g/ha a.s. alone) was 93%. For the same compound, the “herbicidal activity against STEME found” value (STEME [2]; [8]) was 90%, the “herbicidal activity against LAMPU found” value (LAMPU; [7]) was 98% and the “herbicidal activity against POLCO found” value (POLCO; [3]) was 88%. For the same compound, the “herbicidal activity against POLCO found” value (POLCO; [4]) was 88%, the “herbicidal activity against POLCO found” value (POLCO; Example 10, trifludimoxazin 0.25 g/ha a.s. alone) was 88% and the “herbicidal activity against IPOHE found” value (IPOHE; [8]) was 97%. For the same compound, the “herbicidal activity against AVEFA found” value (AVEFA; [5]) was 35%.

With CC1(C)CON(Cc2ccc(Cl)cc2Cl)C1=O [(I), 2-(2,4-dichlorophenyl)methyl-4,4-dimethyl-3-isoxazolidone] the “herbicidal activity against LOLMU found” value (LOLMU; Example 4, compound (I) 125 g/ha a.s. alone) was 65%, the “herbicidal activity against STEME found” value (STEME [1]; [9]) was 83% and the “herbicidal activity against STEME found” value (STEME [1]; [10]) was 85%. The “herbicidal activity against MATIN found” value (MATIN; [11]) was 50%, the “herbicidal activity against GERDI found” value (GERDI; [12]) was 20% and the “herbicidal activity against GERDI found” value (GERDI; [13]) was 35%. For the same compound, the “herbicidal activity against GERDI found” value (GERDI; Example 5, compound (I) 15.625 g/ha a.s. alone) was 20%, the “herbicidal activity against ALOMY found” value (ALOMY; [12]) was 0% and the “herbicidal activity against GALAP found” value (GALAP; Example 9, compound (I) 15.63 g/ha a.s. alone) was 73%. The “herbicidal activity against STEME found” value (STEME [2]; [14]) was 83%, the “herbicidal activity against LAMPU found” value (LAMPU; [13]) was 0% and the “herbicidal activity against POLCO found” value (POLCO; [9]) was 60%. The “herbicidal activity against POLCO found” value (POLCO; [10]) was 50%, the “herbicidal activity against POLCO found” value (POLCO; Example 10, compound (I) 62.5 g/ha a.s. alone) was 73% and the “herbicidal activity against IPOHE found” value (IPOHE; [14]) was 53%. For the same compound, the “herbicidal activity against AVEFA found” value (AVEFA; [11]) was 0%.

— US20210037824A1, “HERBICIDAL MIXTURES” (BASF SE, priority 2018, published 2021)
